{"source": "patent US20040082665A1", "about": "“Method for treating stress or tension” (priority 2001, published 2004)", "key": {"patients [1]": {"tested_on": "patients", "assay": "Randomised placebo-controlled double-blind study; ability to tolerate stress by Visual Analogue Scale (VAS)", "type": "in vivo", "details": "tablet", "protocol": "The effects of deramciclane were studied in a randomised placebo-controlled double-blind study. The subjects were randomly assigned to four parallel groups to receive one tablet twice daily (b.i.d) of a placebo, 5 mg (=10 mg/day), 15 mg (=30 mg/day), or 30 mg (=60 mg/day) deramciclane.\nThe efficacy of deramciclane on the ability to tolerate stress was analysed by the Visual Analogue Scale (VAS)."}, "patients [2]": {"tested_on": "patients", "assay": "Randomised placebo-controlled double-blind parallel group 8-week study of tension", "type": "in vivo", "details": "after 8 weeks of treatment; for patients with tension scale number at least 4: placebo 48% at baseline, 12% after 8 weeks; for patients with moderate/severe or very severe other tension: present in all patients at baseline, placebo 43%; for patients with moderate/severe or very severe muscular tension: placebo 82% at baseline, 38% after 8 weeks", "from_the_text": "The efficacy and safety of deramciclane was studied in the treatment of tension as compared to placebo. A randomised plasebo-controlled double-blind parallel group 8-week study design was used.\nPatients were asked if they had muscular tension (twitchings, stiffness, myoclonic jerks, grinding of teeth, unsteady voice or increased muscular tone) or other tension (feelings of tension, fatigability, startle response, moving to tears easily, trembling, feelings of restlessness or inability to relax). This tension was related to be not present, mild, moderate, severe or very severe.\nIn addition, patients' tension was also rated with the tension scale 1-6:\n2—occasional feelings of edginess and ill defined discomfort\n4—continuous feelings of inner tension\n6—unrelated dread or anguish"}}, "data": [{"smiles": "CN(C)CCO[C@]1(c2ccccc2)C[C@H]2CC[C@]1(C)C2(C)C", "note": "[deramciclane, (1R,2S,4R)-(−)-2-phenyl 2-(dimethylaminoethoxy)-1,7,7-trimethyl-bicyclo[2.2.1]heptane]", "values": [{"measurement": "ability to tolerate stress better than in patients receiving placebo (VAS)", "setting": "patients [1]; deramciclane 5 mg b.i.d (=10 mg/day)", "result": 29, "unit": "%"}, {"measurement": "ability to tolerate stress better than in patients receiving placebo (VAS)", "setting": "patients [1]; deramciclane 15 mg b.i.d (=30 mg/day)", "result": 54, "unit": "%"}, {"measurement": "ability to tolerate stress better than in patients receiving placebo (VAS)", "setting": "patients [1]; deramciclane 30 mg b.i.d. (=60 mg/day)", "result": 43, "unit": "%"}, {"measurement": "patients with tension scale number at least 4", "setting": "patients [2]; 15 mg bid deramciclane, baseline 35%", "result": 5, "unit": "%"}, {"measurement": "patients with moderate/severe or very severe other tension", "setting": "patients [2]; 15 mg bid deramciclane", "result": 25, "unit": "%"}, {"measurement": "patients with moderate/severe or very severe muscular tension", "setting": "patients [2]; 15 mg deramciclane bid, baseline 61%", "result": 18, "unit": "%"}, {"measurement": "patients with tension scale number at least 4", "setting": "patients [2]; 30 mg bid deramciclane, baseline 47%", "result": 11, "unit": "%"}, {"measurement": "patients with moderate/severe or very severe other tension", "setting": "patients [2]; 30 mg bid deramciclane", "result": 24, "unit": "%"}, {"measurement": "patients with moderate/severe or very severe muscular tension", "setting": "patients [2]; baseline 68%", "result": 15, "unit": "%"}]}]}
